Measurements as given in patent publication US9029092B2, “Solution phase homogeneous assays” (Beckman Coulter, Inc., priority 2009, dated 2015).

How the values were obtained:
PSA = experiment: Screening SSIA by homogeneous PSA immunoassay (anti-PSA-AK1 + anti-PSA-HRP); type: biochemical, human
Procedure: This example presents one method used for testing of candidate compounds for functionality as SSIA in assays of the present disclosure. Testing was conducted in a model screening immunoassay of the protein PSA. Tests were run using a 96-well microtiter plate format. A solution containing 30 μL of mouse anti-PSA-AK1 (66 ng), 30 μL of mouse anti-PSA-HRP conjugate (7.8 ng), 36 μL of human female serum, and 24 μL of PSA calibrator were pipetted into each well. The plate was incubated at 37° C. for 10 minutes. A 5 μL aliquot of the test compound (various concentrations) was added to each well. Chemiluminescence was triggered by the addition of 100 μL of a solution of a trigger solution whose composition is listed below. The chemiluminescent flash was integrated for 5 seconds after the addition of the trigger solution using a Luminoskan Asent® plate luminometer, (Thermo Fischer Scientific, Inc., Waltham, Mass.).
It is desirable that the improvement factor be at least 2 (S5/S0≧ about 20-30) and more desirable that improvement factor be at least 5 (S5/S0≧ about 50), yet more desirable that S5/S0 be ≧100 in the present screen.

biotinylated HRP = experiment: Model system for selection of SSIA (AK1/streptavidin BSA microparticles + biotinylated HRP); type: biochemical, horseradish; details: SSIA 100 μM final; for light intensity, BTN-HRP0: Btn-HRP 0 ng/mL; for light intensity, BTN-HRP0 / light intensity, BTN-HRP1 / light intensity, BTN-HRP10 / light intensity, BTN-HRP100 / light intensity, BTN-HRP250: total HRP 500 ng/mL; for S1/S0: Btn-HRP 1 ng/mL vs 0; for light intensity, BTN-HRP1: Btn-HRP 1 ng/mL; for S2/S0: Btn-HRP 10 ng/mL vs 0; for light intensity, BTN-HRP10: Btn-HRP 10 ng/mL; for S3/S0: Btn-HRP 100 ng/mL vs 0; for light intensity, BTN-HRP100: Btn-HRP 100 ng/mL; for S4/S0: Btn-HRP 250 ng/mL vs 0; for light intensity, BTN-HRP250: Btn-HRP 250 ng/mL
Procedure: The model system uses a microparticle conjugated to BSA (bovine serum albumin) labeled with a […] and acridan ketenedithioacetal chemiluminescent label (AK1) as the chemiluminescent-labeled sbp, and biotinylated HRP as the activator-labeled specific binding pair. In the model system, varying amounts of Btn-HRP is added to the chemiluminescent-labeled specific binding pair at 0, 1, 10, 100 and 250 ng/mL. Additional unlabeled HRP is added to reach a total HRP of concentration of 500 ng/mL in each reaction mixture. The unlabeled HRP in combination with the activator-labeled sbp was provided to the chemiluminescent-labeled sbp microparticles to emulate sample. A compound for assessment as an SSIA was also added. This reaction mixture of the model system is then triggered by addition of trigger solution in a manner of assays of the present disclosure.
To prepare the chemiluminescent-labeled sbp on microparticles, Bovine Serum Albumin (BSA) was biotinylated with 4× molar excess of biotin-LC-sulfoNHS (Pierce Biotechnology Inc., Rockford, Ill., USA). Unbound reactants were removed via desalting or dialysis. The biotin-BSA was then reacted with a 5× molar excess of an NHS ester of acridan ketenedithioacetal AK1 in 20 mM sodium phosphate pH 7.2: DMSO 75:25, v/v) followed by desalting in the same buffer. The dual labeled (biotin and AK1) BSA was then coupled with tosyl activated M280 microparticles (Invitrogen Corporation, Carlsbad, Calif., USA) in a 0.1M borate buffer pH 9.5 at a concentration of about 20 μg of labeled BSA per mg of microparticles for 16-24 h at 40° C. After coupling the microparticles were stripped for 1 h at 40° C. with 0.2 M TRIS base, 2% SDS, pH˜11. The stripping process was repeated one additional time. Microparticles were then suspended in a 0.1% BSA/TRIS buffered saline (BSA/TBS) buffer and streptavidin (SA) was added at approximately 15 μg SA per mg microparticles. Streptavidin was mixed with the microparticles for 45-50 min at room temperature. The microparticles were then washed three times and suspended in the same BSA/TBS.
HRP, (Roche Diagnostics, Indianapolis, Ind., USA) was biotinylated with 4× molar excess of biotin-LC-sulfoNHS (Pierce Biotechnology Inc., Rockford, Ill., USA). Alternatively, 25× molar excess of biotin-PEO4-NHS may be used. Unbound reactants were removed via desalting or dialysis.
Each SSIA compound for assessment was solubilized in Buffer II at a concentration at least 10× of the working strength concentration.
25 μl of 1 mg/ml of dual-labeled (biotin and AK1) BSA M280 particles were mixed with 45 μl of working concentration SSIA in Buffer II. The assay volume brought to 85 μl by adding 15 μl of Buffer II. 15 μl of sample containing Btn-HRP:HRP at different ratios (The amount of biotinylated-HRP varied from 0, 1, 10, 100 and 250 ng/mL) was added. The reaction mixture was incubated for 30 min at 37° C., then 100 μL of trigger solution was added and the light intensity recorded. Total volume of reaction mixture, including trigger solution was 200 μL with a final concentration of 100 μM of SSIA.
The screening tests were performed using a modified DxI® Immunoassay System (Beckman Coulter, Inc. Brea, Calif.) as described above.

TnI = experiment: Assays utilizing various SSIA in TnI assay; type: biochemical; details: for Signal/Noise S1/S0: calibrator S1; for Signal/Noise S2/S0: calibrator S2; for Signal/Noise S3/S0: calibrator S3; for Signal/Noise S4/S0: calibrator S4; for Signal/Noise S5/S0: calibrator S5; for Signal/Noise S6/S0: calibrator S6
Procedure: In a reaction tube, 400 uL of TnI M6 antibody-HRP conjugate at 0.5 ug/mL in buffered aqueous solution at pH. 8.0 (100 mM Tris, 150 mM NaCl, 0.1 mM EDTA, 0.2% Tween-20 and 1% BSA), 400 uL of AK1˜Dex70/31˜Streptavidin (fraction 1) 2:1 SA/Ab at 2 ug/mL Ab also in buffered aqueous solution at pH 8.0, and 400 uL of calibrator standard solution containing the TnI analyte at a known concentration. One tube was prepared for each calibrator concentration. […] Next, 25 uL of each antioxidant as a concentrated solution of 2 mM, 1 mM or 0.5 mM was pipetted into the plate wells using a repeater pipette. The plates were rotated for 10 seconds to mix and incubated between 5 to 33 minutes. Detection was performed with a SpectraMax L injection plate luminometer.

[1] = test compound final conc. 0.244 mM (244 uM)
[2] = test compound final conc. […] ([…]), S5 = 129 ng PSA/mL vs zero PSA
[3] = SSIA final concentration 125 uM
[4] = SSIA final concentration 250 uM
[5] = SSIA final concentration 500 uM
[6] = SSIA final concentration 6.25 uM
[7] = SSIA final concentration 12.5 uM

## Nc1cc(Cl)ccc1O
PSA; [1]
  S5/S0: 205

## O=C(O)c1cc(O)c(O)c(O)c1
PSA; [2]
  S5/S0: 135

## Oc1ccc(Cl)cc1O [drawing 108]
PSA; [1]
  S5/S0: 409

## O=c1cc(O)c2ccccc2o1
PSA; [2]
  S5/S0: 17

## O=C(O)c1cccc(O)c1O
PSA; [2]
  S5/S0: 22

## Nc1ccccc1O [2-amino phenol, 2-aminophenol]
Biotinylated HRP
  light intensity, BTN-HRP0: 65
  S1/S0: 5.5
  light intensity, BTN-HRP1: 356
  S2/S0: 132.8
  light intensity, BTN-HRP10: 8,632
  S3/S0: 32195.4
  light intensity, BTN-HRP100: 2,092,703
  S4/S0: 61672.1
  light intensity, BTN-HRP250: 4,008,689
  effectiveness as SSIA in the model system: demonstrating utility as SSIA
TnI; [3]
  Signal/Noise S1/S0: 1.4
  Signal/Noise S2/S0: 2.3
  Signal/Noise S3/S0: 7.6
  Signal/Noise S4/S0: 27.2
  Signal/Noise S5/S0: 183.7
  Signal/Noise S6/S0: 1604.7
TnI; [4]
  Signal/Noise S1/S0: 0.9
  Signal/Noise S2/S0: 1.7
  Signal/Noise S3/S0: 4.5
  Signal/Noise S4/S0: 15.4
  Signal/Noise S5/S0: 101.7
  Signal/Noise S6/S0: 739.1
TnI; [5]
  Signal/Noise S1/S0: 1.3
  Signal/Noise S2/S0: 1.8
  Signal/Noise S3/S0: 4.8
  Signal/Noise S4/S0: 10.8
  Signal/Noise S5/S0: 52.5
  Signal/Noise S6/S0: 329.9

## O=S(=O)([O-])CCCN1c2ccccc2Sc2ccccc21.[Na+]
PSA; [1]
  S5/S0: 50

## Nc1ncccc1O
PSA; [2]
  S5/S0: 32

## Cc1cc(CO)c(O)c(CO)c1
PSA; [2]
  S5/S0: 23

## Nc1cccc(Cl)c1O
PSA; [1]
  S5/S0: 300

## O=S(=O)([O-])CCCN1c2ccccc2Cc2ccccc21.[Na+]
PSA; [1]
  S5/S0: 15

## O=S([O-])[O-].[Na+].[Na+] [Na2SO3]
PSA; test compound final conc. 15 uM
  S5/S0: 59

## COc1ccccc1N
PSA; [2]
  S5/S0: 7

## Nc1cc(C[C@H](N)C(=O)O)ccc1O
PSA; [1]
  S5/S0: 448

## Nc1cc(C[C@H](N)C(=O)O)ccc1O [3-Amino Tyrosine]
TnI; [3]
  Signal/Noise S1/S0: 1.5
  Signal/Noise S2/S0: 2.8
  Signal/Noise S3/S0: 9.0
  Signal/Noise S4/S0: 32.2
  Signal/Noise S5/S0: 234.8
  Signal/Noise S6/S0: 2268.7
TnI; [4]
  Signal/Noise S1/S0: 1.7
  Signal/Noise S2/S0: 2.7
  Signal/Noise S3/S0: 8.1
  Signal/Noise S4/S0: 31.1
  Signal/Noise S5/S0: 217.9
  Signal/Noise S6/S0: 1772.4
TnI; [5]
  Signal/Noise S1/S0: 1.1
  Signal/Noise S2/S0: 1.9
  Signal/Noise S3/S0: 5.9
  Signal/Noise S4/S0: 19.8
  Signal/Noise S5/S0: 118.6
  Signal/Noise S6/S0: 766.3

## Cc1c(C)c2c(c(C)c1O)CCC(C)(C(=O)O)O2 (stereo not shown) [Trolox ®]
Biotinylated HRP
  light intensity, BTN-HRP0: 173
  S1/S0: 8.4
  light intensity, BTN-HRP1: 1,460
  S2/S0: 215.1
  light intensity, BTN-HRP10: 37,291
  S3/S0: 41832.7
  light intensity, BTN-HRP100: 7,251,008
  S4/S0: 62274.5
  light intensity, BTN-HRP250: 10,794,247
  effectiveness as SSIA in the model system: demonstrating utility as SSIA
TnI; [3]
  Signal/Noise S1/S0: 1.6
  Signal/Noise S2/S0: 3.3
  Signal/Noise S3/S0: 11.5
  Signal/Noise S4/S0: 44.4
  Signal/Noise S5/S0: 302.0
  Signal/Noise S6/S0: 2713.1
TnI; [4]
  Signal/Noise S1/S0: 2.0
  Signal/Noise S2/S0: 3.5
  Signal/Noise S3/S0: 12.8
  Signal/Noise S4/S0: 45.8
  Signal/Noise S5/S0: 295.1
  Signal/Noise S6/S0: 2334.5
TnI; [5]
  Signal/Noise S1/S0: 1.7
  Signal/Noise S2/S0: 2.6
  Signal/Noise S3/S0: 11.3
  Signal/Noise S4/S0: 31.1
  Signal/Noise S5/S0: 192.0
  Signal/Noise S6/S0: 1181.7

## c1ccc2c(c1)Nc1ccccc1O2 [phenoxazine]
TnI; [6]
  Signal/Noise S1/S0: 1.5
  Signal/Noise S2/S0: 3.1
  Signal/Noise S3/S0: 8.4
  Signal/Noise S4/S0: 32.1
  Signal/Noise S5/S0: 227.2
  Signal/Noise S6/S0: 2049.8
TnI; [7]
  Signal/Noise S1/S0: 1.5
  Signal/Noise S2/S0: 2.3
  Signal/Noise S3/S0: 6.4
  Signal/Noise S4/S0: 24.5
  Signal/Noise S5/S0: 147.2
  Signal/Noise S6/S0: 1116.9
TnI; SSIA final concentration 25 uM
  Signal/Noise S1/S0: 1.3
  Signal/Noise S2/S0: 1.6
  Signal/Noise S3/S0: 3.7
  Signal/Noise S4/S0: 12.1
  Signal/Noise S5/S0: 62.8
  Signal/Noise S6/S0: 387.3

## N[C@@H](CS)C(=O)O [Cysteine]
Biotinylated HRP
  light intensity, BTN-HRP0: 35,695
  S1/S0: 1.6
  light intensity, BTN-HRP1: 58,203
  S2/S0: 69.6
  light intensity, BTN-HRP10: 2,483,411
  S3/S0: 256.3
  light intensity, BTN-HRP100: 9,147,371
  S4/S0: 285.5
  light intensity, BTN-HRP250: 10,190,505
  effectiveness as SSIA in the model system: insuffient effectiveness
